Laboratory results reported in patent US8178506B2, “Oligomeric compounds and compositions for use in modulation of small non-coding RNAs” (Regulus Therapeutics Inc., priority 2003, dated 2012).
In the oligonucleotide strings, read from the 5' end, every base follows the letter of its sugar. An asterisk marks phosphorothioate; unmarked linkages are phosphodiester. Other units and linkages are bracketed, terminal groups are in braces. A string of capitals states the bases alone. e = 2'-O-(2-methoxyethyl) (MOE); [5mC] = 5-methylcytosine

Columns and labels:
Assay type in all cases: cell-based, human
[1] = test system: Glut4; assay: Glut4 mRNA expression in adipocytes (real-time PCR)
Method: (§1) Expression of the four hallmark genes, HSL, aP2, Glut4, and PPARγ, is also measured in adipocytes transfected with oligomeric compounds of the invention. Cells are lysed on day nine post-transfection and total RNA is harvested. The amount of total RNA in each sample is determined using a Ribogreen Assay (Invitrogen Life Technologies, Carlsbad, Calif.).
(§2) For assaying adipocyte differentiation, expression of the four hallmark genes, HSL, aP2, Glut4, and PPARγ, as well as triglyceride (TG) accumulation and leptin secretion were measured in adipocytes transfected with the uniform 2′-MOE phosphorothioate (PS) oligomeric compounds previously described. Cells are lysed on day nine post-transfection, in a guanadinium-containing buffer and total RNA is harvested. Real-time PCR is performed (Applied Biosystems, Prism 7700) on the total RNA using the following primer/probe sets for the adipocyte differentiation hallmark genes: (aP2): forward 5′-GGTGGTGGAATGCGTCATG-3′ (SEQ ID NO: 746), reverse 5′-[…]-3′ (SEQ ID NO: 747), probe 5′-FAM-[…]-TAMRA-3′ (SEQ ID NO: 748); (Glut4): forward 5′-GGCCTCCGCAGGTTCTG-3′ (SEQ ID NO: 749), reverse 5′-[…]-3′ (SEQ ID NO: 750), probe 5′-FAM-[…]-TAMRA-3′ (SEQ ID NO: 751); (HSL): forward 5′-ACCTGCGCACAATGACACA-3′ (SEQ ID NO: 752), reverse 5′-[…]-3′ (SEQ ID NO: 753), probe 5′-FAM-[…]-TAMRA-3′ (SEQ ID NO: 754); (PPAR-γ): forward 5′-[…]-3′ (SEQ ID NO: 755), reverse 5′-[…]-3′ (SEQ ID NO: 756), probe 5′-FAM-[…]-TAMRA-3′ (SEQ ID NO: 757). The amount of total RNA in each sample is determined using a Ribogreen Assay (Molecular Probes, Eugene, Oreg.), and expression levels of the adipocyte differentiation hallmark genes were normalized to total RNA.

[2] = test system: adipocytes; assay: Triglyceride accumulation assay in adipocytes
Method: The triglyceride accumulation assay measures the synthesis of triglyceride by adipocytes. Triglyceride accumulation is measured using the Infinity™ Triglyceride reagent kit (Sigma-Aldrich, St. Louis, Mo.). On day nine post-transfection, cells are washed and lysed at room temperature, and the triglyceride assay reagent is added. Triglyceride accumulation is measured based on the amount of glycerol liberated from triglycerides by the enzyme lipoprotein lipase. Liberated glycerol is phosphorylated by glycerol kinase, and hydrogen peroxide is generated during the oxidation of glycerol-1-phosphate to dihydroxyacetone phosphate by glycerol phosphate oxidase. Horseradish peroxidase (HRP) uses H2O2 to oxidize 4-aminoantipyrine and 3,5 dichloro-2-hydroxybenzene sulfonate to produce a red-colored dye. Dye absorbance, which is proportional to the concentration of glycerol, is measured at 515 nm using an UV spectrophotometer. Glycerol concentration is calculated from a standard curve for each assay, and data are normalized to total cellular protein as determined by a Bradford assay (Bio-Rad Laboratories, Hercules, Calif.).
An increase in triglyceride content is another well-established marker for adipocyte differentiation. The triglyceride accumulation assay measures the synthesis of triglyceride by adipocytes. Triglyceride accumulation was measured using the Infinity™ Triglyceride reagent kit (Sigma-Aldrich, St. Louis, Mo.). Human white preadipocytes (Zen-Bio Inc., Research Triangle Park, N.C.) were grown in preadipocyte media (ZenBio Inc.). One day before transfection, 96-well plates were seeded with 3000 cells/well. Cells were transfected according to standard published procedures with 250 nM oligomeric compound in LIPOFECTIN™ (Invitrogen Corporation, Carlsbad, Calif.) (Monia et al., J. Biol. Chem. 1993 268(19):14514-22). Oligomeric compounds were tested in triplicate on each 96-well plate, and the effects of TNF-α, a positive drug control that inhibits adipocyte differentiation, were also measured in triplicate. Negative and transfectant-only controls may be measured up to six times per plate. After the cells have reached confluence (approximately three days), they were exposed to differentiation media (Zen-Bio, Inc.) containing a PPAR-γ agonist, IBMX, dexamethasone, and insulin for three days. Cells were then fed adipocyte media (Zen-Bio, Inc.), which was replaced at 2 to 3 day intervals. […] Triglyceride accumulation was measured based on the amount of glycerol liberated from triglycerides by the enzyme lipoprotein lipase. Liberated glycerol is phosphorylated by glycerol kinase, and hydrogen peroxide is generated during the oxidation of glycerol-1-phosphate to dihydroxyacetone phosphate by glycerol phosphate oxidase. Horseradish peroxidase (HRP) uses H2O2 to oxidize 4-aminoantipyrine and 3,5 dichloro-2-hydroxybenzene sulfonate to produce a red-colored dye. Dye absorbance, which is proportional to the concentration of glycerol, was measured at 515 nm using an UV spectrophotometer. Glycerol concentration was calculated from a standard curve for each assay, and data were normalized to total cellular protein as determined by a Bradford assay (Bio-Rad Laboratories, Hercules, Calif.). Results are expressed as a percent±standard deviation relative to transfectant-only control.

[3] = test system: aP2; assay: aP2 mRNA expression in adipocytes (real-time PCR); details: for aP2 mRNA: differentiating adipocytes transfected with oligomeric compound, Table 75; for AP2 mRNA: differentiating adipocytes, control = treatment with ISIS 342673
Method: as §1, §2

[4] = test system: HSL; assay: HSL mRNA expression in adipocytes (real-time PCR)
Method: as §1, §2

[5] = test system: PPARγ; assay: PPARγ mRNA expression in adipocytes (real-time PCR)
Method: as §1, §2

[6] = differentiating adipocytes transfected with oligomeric compound, Table 75
[7] = Table 18, differentiating adipocytes, control = treatment with ISIS 342673
[8] = Table 17, differentiating adipocytes, control = treatment with ISIS 342673

Row | Substance | GLUT4 mRNA [1, 6] | TG (triglyceride accumulation) [2, 6] | aP2 mRNA [3] | HSL mRNA [4, 6] | PPAR gamma mRNA [5, 6] | GLUT4 mRNA [1, 7] | TG (triglyceride accumulation) [2, 7] | AP2 mRNA ([3]; Table 18) | HSL mRNA [4, 7] | PPAR gamma mRNA [5, 7] | GLUT4 mRNA [1, 8] | TG (triglyceride accumulation) [2, 8] | AP2 mRNA ([3]; Table 17) | HSL mRNA [4, 8] | PPAR gamma mRNA [5, 8]
1 | 344614 (CCAGCAGCACCUGGGGCAGU; all 2'-MOE, all phosphorothioate, methylation of C and T or U not given here) [compound 344614] | 61 percentage of untreated control (UTC) | 89 percentage of untreated control (UTC) | 78 percentage of untreated control (UTC) | 71 percentage of untreated control (UTC) | 86 percentage of untreated control (UTC) |  |  |  |  |  |  |  |  |  | 
2 | 348119 (UCCAUAAAGUAGGAAACACUACA; anti-miR; all 2'-MOE, all phosphorothioate, methylation of C and T or U not given here) [compound 348119] | 86 percentage of untreated control (UTC) | 91 percentage of untreated control (UTC) | 81 percentage of untreated control (UTC) | 76 percentage of untreated control (UTC) | 90 percentage of untreated control (UTC) |  |  |  |  |  |  |  |  |  | 
3 | 344612 (ACGGAAGGGCAGAGAGGGCCAG; anti-miR; all 2'-MOE, all phosphorothioate, methylation of C not given here) [compound 344612] | 40 percentage of untreated control (UTC) | 69 percentage of untreated control (UTC) | 72 percentage of untreated control (UTC) | 59 percentage of untreated control (UTC) | 62 percentage of untreated control (UTC) |  |  |  |  |  |  |  |  |  | 
4 | 341796 (antisense UCAUACAGCUAGAUAACCAAAGA; all 2'-MOE, all phosphorothioate, methylation of C and T or U not given here) [compound 341796] | 58 percentage of untreated control (UTC) | 59 percentage of untreated control (UTC) | 74 percentage of untreated control (UTC) | 67 percentage of untreated control (UTC) | 66 percentage of untreated control (UTC) |  |  |  |  |  |  |  |  |  | 
5 | 328089 (antisense eA*e[5mC]*eT*eG*eT*eA*eG*eG*eA*eA*eT*eA*eT*eG*eT*eT*eT*eG*eA*eT*eA) [compound 328089] | 59 percentage of untreated control (UTC) | 67 percentage of untreated control (UTC) | 50 percentage of untreated control (UTC) | 55 percentage of untreated control (UTC) | 79 percentage of untreated control (UTC) |  |  |  |  |  |  |  |  |  | 
6 | 346919 (CUACCUGCACGAACAGCACUUUG; all 2'-MOE, all phosphorothioate, methylation of C and T or U not given here) [compound 346919] | 50 percentage of untreated control (UTC) | 44 percentage of untreated control (UTC) | 64 percentage of untreated control (UTC) | 45 percentage of untreated control (UTC) | 65 percentage of untreated control (UTC) |  |  |  |  |  |  |  |  |  | 
7 | 328102 (antisense eG*e[5mC]*e[5mC]*e[5mC]*e[5mC]*eA*eT*eT*eA*eA*eT*eA*eT*eT*eT*eT*eA*eA*e[5mC]*e[5mC]*eA) [compound 328102] | 58 percentage of untreated control (UTC) | 70 percentage of untreated control (UTC) | 96 percentage of untreated control (UTC) | 99 percentage of untreated control (UTC) | 94 percentage of untreated control (UTC) | 79.2 percentage of control | 95.9 percentage of control | 87.9 percentage of control | 97.0 percentage of control | 93.7 percentage of control |  |  |  |  | 
8 | 328116 (antisense e[5mC]*eA*eA*eA*eA*eT*eT*eG*e[5mC]*eA*eA*eG*e[5mC]*eA*eA*eA*eT*eT*eG*e[5mC]*eA) [compound 328116] | 105 percentage of untreated control (UTC) | 107 percentage of untreated control (UTC) | 99 percentage of untreated control (UTC) | 91 percentage of untreated control (UTC) | 95 percentage of untreated control (UTC) |  |  |  |  |  | 75.2 percentage of control | 82.1 percentage of control | 87.7 percentage of control | 75.8 percentage of control | 78.4 percentage of control
9 | 328122 (antisense e[5mC]*eA*eA*eA*eA*e[5mC]*eA*eT*eA*eA*eA*eA*eA*eT*e[5mC]*e[5mC]*eT*eT*eG*e[5mC]*eA) [compound 328122] | 91 percentage of untreated control (UTC) | 97 percentage of untreated control (UTC) | 99 percentage of untreated control (UTC) | 89 percentage of untreated control (UTC) | 103 percentage of untreated control (UTC) |  |  |  |  |  | 85.9 percentage of control | 78.9 percentage of control | 79.3 percentage of control | 72.7 percentage of control | 77.8 percentage of control
10 | 344269 (antisense UAACCGAUUUCAAAUGGUGCUA; all 2'-MOE, all phosphorothioate, methylation of C and T or U not given here) [compound 344269] | 28 percentage of untreated control (UTC) | 42 percentage of untreated control (UTC) | 41 percentage of untreated control (UTC) | 35 percentage of untreated control (UTC) | 48 percentage of untreated control (UTC) |  |  |  |  |  |  |  |  |  | 
